{"source": "patent US10596216B2", "about": "“Use of a Withania extract for the treatment of amyloid-related diseases” (Ethnodyne, priority 2015, dated 2020)", "tested_on": "rat primary cortical cultures", "assay": "Neuroprotective effect following exposure to glutamate (Example 12)", "type": "cell-based", "details": "glutamate 40 μM, 20 min, primary cortical neuron culture", "protocol": "This study investigated the neuroprotective effect of the composition WEB-2 on rat primary cortical cultures following exposure to glutamate (40 μM, 20 min application), an in vitro AD model.\nPregnant Wistar females rat (JanvierLabs, France) at 15 days of gestation were killed by cervical dislocation. The foetuses were prepared as in example 11.\nOnce obtained, the cells were seeded at a density of 30,000 per well in 96-well plates precoated with poly-L-lysine (Batch: 3102256, Corning Biocoat) and were cultured at 37° C. in an air (95%)-CO2 (5%) incubator. The medium was changed every 2 days. The cortical neurons were intoxicated with glutamate solution.\nOn day 13 after culture, glutamate (Batch: 061M0030V, Sigma) was added into cell culture to a final concentration of 40 μM diluted in control medium for 20 min. After 20 min, the cells were washed-out and new fresh medium containing or not WEB-2 was added for 48 h additional time. […]\nThe immunolabeled cultures were automatically examined with ImageXpress equipped with a LED at ×20 magnification. For each condition (6 culture wells), 30 automatically fields per well (representing ˜80% of the total surface of the well) were analyzed. The total number of neurons and neurite length were automatically analyzed using MetaXpress software."}
{"smiles": "N[C@@H](CCC(=O)O)C(=O)O", "note": "[Glutamate, glutamate]", "values": [{"measurement": "neurite network loss induced", "value": "neurite network loss"}, {"measurement": "neuronal death induced", "value": "significant neuronal death"}]}
